These results are taken from patent publication US9682148B2, “Solid oral dosage form of testosterone derivative” (Solural Pharma APS, priority 2012, dated 2017).

A short description of series [1]: Estimate of maximal amount of lymphatic absorbed TU. To be noted: estimated: 25% of solubility x 120 mg/g x 3.5 g triglyceride/10 h, formulation of 600 mg fat. An excerpt:
The maximal amount of lymphatic absorbed TU can be estimated from the solubility of Testosterone Undecanoate in triglyceride and the transported triglyceride (Int. J. Pharm., vol. 34, 175-178, 1986).

The conditions of series [2]: cited from earlier work.

For `CCCCCCCCCCC(=O)O[C@H]1CC[C@H]2[C@@H]3CCC4=CC(=O)CC[C@]4(C)[C@H]3CC[C@]12C` [Testosterone Undecanoate], in series [1], the “maximal amount of lymphatic absorbed TU” value is ~100 mg. For the same molecule, the solubility in triglyceride in series [2] is on record as 120 mg/g.
